Data taken from BindingDB's records for doi:10.1021/jm0496077 (University of Southern California, 2005).

Target: Integrase (Human immunodeficiency virus 1)
Assay: Concentration required to inhibit catalytic activity of human immuno deficiency virus type 1 integrase

IC50: < 1000 nM
Structure (SMILES): O=C(/C=C(\O)c1ccc(Cc2ccc(F)cc2)o1)c1cc[nH]c1
